{
  "source": "patent US8581584B2",
  "about": "“Membrane proteins, mechanisms of action and uses thereof” (priority 2010, dated 2013)",
  "target": "transmembrane domain of M2 protein (Influenza A virus, UniProt P0DOF5)",
  "sequence (P0DOF5 26-46)": "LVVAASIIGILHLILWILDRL",
  "test": "solid state NMR spectra of uniformly aligned M2 samples with and without drug",
  "conditions": "five isoleucines 15N labeled; FIG. 31",
  "source_text": "Uniformly aligned samples of membrane proteins meant that each molecule in the sample will have the same orientation with respect to the magnetic field axis of the NMR spectrometer. In this way the orientation dependent spin interactions such as anisotropic chemical shifts, dipolar and quadrupolar interactions can be observed. The orientations of the individual atomic sites in the protein reflect the orientation of that particular site with respect to the magnetic field.",
  "data": [
    {"smiles": "NC12CC3CC(CC(C3)C1)C2", "note": "[amantadine]", "values": [
      {"measurement": "change of 15N-Ile resonances in response to drug binding", "value": "two of the resonances shift (arrows) dramatically in response to drug binding"}
    ]}
  ]
}
